# Source: patent US20240335462A1, “SULFUR/PHOSPHORUS-CONTAINING ARYL COMPOUND AND APPLICATION THEREOF” (MEDSHINE DISCOVERY INC., priority 2021, published 2024)
# Key:
# [1] = tested on: TYK2 signaling pathway (IFN-α/pSTAT1); experiment: IFN-α-stimulated pSTAT1 in human PBMC (flow cytometry); assay type: cell-based; conditions: CD4-positive cells
# Description: The purpose of this experiment was to detect the inhibitory effect of the compounds on cytokine-activated JAK-STAT signaling pathways in human peripheral blood mononuclear cells (PBMC).
# • a) PBMCs frozen in liquid nitrogen were thawed in a 37° C. water bath, and culture medium was added. The mixture was then centrifuged at 320 g for 3 minutes. • b) Cells were resuspended in culture medium, counted, and the cell concentration was adjusted to 5×10^5 cells/mL with culture medium. Subsequently, the cell suspension was inoculated into […] 96-well round-bottom plates, with 200 μL per well. The plates were incubated at 37° C. with 5% CO2 for 90 minutes. • c) Different concentrations of the test compound (starting at 2 μM, 5-fold serial dilution, a total of 8 concentrations) were added, followed by incubation at 37° C. with 5% CO2 for 30 minutes. • d) IL-6 (final concentration at 20 ng/mL) was added to the first round-bottom plate and incubated at 37° C. with 5% CO2 for 15 minutes. • e) IFNα (final concentration at 1000 U/mL) was added to the second round-bottom plate and incubated at 37° C. with 5% CO2 for 15 minutes. • f) IL-2 (final concentration at 4 ng/mL) was added to the third round-bottom plate and incubated at 37° C. with 5% CO2 for 15 minutes. • g) GM-CSF (final concentration at […]) was added to the fourth round-bottom plate and incubated at 37° C. with 5% CO2 for 15 minutes. • h) Cells were centrifuged at 320 g for 3 minutes, and each well was washed once with 200 μL of staining solution. • i) 50 μL of staining solution containing human CD33 antibody was added to each well of the GM-CSF-stimulated culture plate, and 50 μL of staining solution containing CD4 antibody was added to the remaining three culture plates. The staining was performed at 4° C. for 30 minutes. The cells were washed twice with the staining solution. • j) 100 μL of fixation buffer was added to each well, and the cells were fixed at 4° C. for 15 minutes. The cells were washed once with the staining solution. • k) 100 μL of permeabilization buffer was added to each well, and the cells were permeabilized at 4° C. for 20 minutes. The cells were washed twice with the staining solution. • l) 50 μL of staining solution containing human pSTAT1 antibody was added to each well of the IL-6 and IFN-α-stimulated culture plates, and 50 μL of staining solution containing human pSTAT5 antibody was added to each well of the IL-2 and GM-CSF-stimulated culture plates. The staining was performed at room temperature for 15 minutes. The cells were washed twice with the staining solution. • m) The cells were resuspended in 150 μL of staining solution. • n) The fluorescence intensity of pSTAT1 (stimulated by IL-6 and IFN-α) or pSTAT5 (stimulated by IL-2) in CD4-positive cells was detected using flow cytometer. The fluorescence intensity of pSTAT5 (stimulated by GM-CSF) in CD33-positive cells was also detected.
# Data analysis was performed using Flowjo software to determine the IC50 of the compounds.
# [2] = tested on: TYK2 signaling pathway (IFN-α/pSTAT1); experiment: IFN-α-induced STAT1 phosphorylation in mouse whole blood; assay type: cell-based; conditions: CD3+ cells
# Description: The purpose of this experiment was to detect the inhibitory effect of the compound on the JAK-STAT signaling pathway activated by IFN-α in mouse whole blood. Fresh mouse whole blood was collected and placed in a 96-well plate. The test compound was added and incubated for 1 hour, followed by stimulation with IFN-α. The corresponding STAT1 phosphorylation level in the CD3^+ cell population was analyzed using flow cytometer by means of surface antibody staining and intracellular phosphorylated antibody staining. The IFN-α-induced STAT1 phosphorylation in mouse whole blood is dependent on TYK2 activity. By detecting the inhibitory activity of the compound on downstream […] phosphorylation, the half maximal inhibitory concentration (IC50) of the compound on TYK2 signaling pathway activity can be determined.
# • a) The compound was prepared into a 10 mM solution with dimethyl sulfoxide (DMSO), and diluted in DMSO to a solution with various concentrations, 500 times the final concentration. • b) 5 μL of the diluted compound was transferred to 120 μL of phosphate buffered saline (PBS) containing 0.1% bovine serum albumin (BSA). • c) Positive and negative control groups were set up, with both finally containing 0.2% DMSO.
# • a) 67.5 μL of mouse whole blood was added to each well of a 96-well cell culture plate. • b) 3.5 μL of the diluted compound was added thereto and mixed thoroughly. • c) The plate was incubated in a 37° C. incubator for 60 minutes. • d) Mouse interferon recombinant protein was diluted 125-fold in PBS containing 0.1% BSA, and anti-mouse CD3 antibody was diluted 5-fold in PBS containing 0.1% BSA. 5 μL of diluted anti-mouse CD3 antibody and 4 μL of diluted mouse interferon recombinant protein were added to each well. • e) The plate was incubated in a 37° C. incubator for 30 minutes. • f) All cells were transferred to a 96-well deep well plate, and 1 mL of 37° C. pre-warmed 1× lysis/fixation buffer was added thereto. • g) The cells were incubated in the dark at 37° C. for 10 minutes. • h) After centrifugation at 600 g for 5 minutes, the supernatant was discarded, and the cells were washed twice with 1 mL of PBS by centrifugation. • i) 0.4 mL per well of permeabilization buffer was added to the cell pellet and mixed thoroughly. The cells were incubated in the dark at 4° C. for 30 minutes. • j) After centrifugation at 600 g for 5 minutes, the supernatant was discarded, and the cells were washed twice with 1 mL of flow cytometry staining buffer (PBS+0.2% BSA+1 mM EDTA) by centrifugation. • k) Anti-STAT1 antibody was diluted 65-fold in flow cytometry staining buffer, and added to cell-containing wells at 100 μL per well and mixed thoroughly. • l) The cells were incubated at room temperature for 40 minutes. • m) 1 mL per well of flow cytometry staining buffer was added, and the cells were washed twice by centrifugation at 600 g for 5 minutes. • n) The supernatant was discarded, and the cell pellet was resuspended in 300 μL of flow cytometry staining buffer. • o) The samples were loaded for analysis using the Beckman CytoFlex flow cytometer.
# Data were analyzed using FlowJo software. Curve fitting was performed and the IC50 was calculated using GraphPad Prism 8 software.
smiles,measurement,setting,value
"CNC(=O)c1nnc(NC(=O)C2CC2)cc1Nc1cccc(-c2ncc(S(=N)(=O)C(C)C)cn2)c1OC (single isomer, unassigned) [WX-011A]",IC50,[1],2.6 nM
same,IC50,[2],148 nM
"CNC(=O)c1nnc(NC(=O)C2CC2)cc1Nc1cccc(-c2ncc(S(=N)(=O)C(C)C)cn2)c1OC (single isomer, unassigned) [WX-011B]",IC50,[1],2.4 nM
same,IC50,[2],375 nM
"CNC(=O)c1nnc(NC(=O)C2CC2)cc1Nc1cccc(-c2ccc(S(=N)(=O)C(C)C)cn2)c1OC (single isomer, unassigned) [WX-012A]",IC50,[1],2 nM
"CNC(=O)c1nnc(NC(=O)C2CC2)cc1Nc1cccc(-c2ccc(S(=N)(=O)C(C)C)cn2)c1OC (single isomer, unassigned) [WX-012B]",IC50,[1],1.5 nM
same,IC50,[2],419 nM
CNC(=O)c1cnc(NC(=O)C2CC2)cc1Nc1cccc(-c2ccc(S(=O)(=O)C(C)C)cn2)c1OC.Cl [Hydrochloride of WX-020],IC50,[1],1.3 nM
CNC(=O)c1cnc(NC(=O)C2CC2)cc1Nc1cccc(-c2ncc(S(=O)(=O)C(C)C)cn2)c1OC [WX-019],IC50,[1],1.5 nM
same,IC50,[2],427 nM
CNC(=O)c1cnc(NC(=O)C2CC2)cc1Nc1cccc(-c2ccc(S(=O)(=O)C(C)C)cn2)c1OC [WX-020],IC50,[2],369 nM
CNC(=O)c1nnc(NC(=O)C2CC2)cc1Nc1cccc(-c2ccc(P(=O)(C3CC3)C3CC3)cn2)c1OC [WX-021],IC50,[1],2.1 nM
same,IC50,[2],452 nM
